Measurements taken from patent publication US20190345505A1, “METHODS FOR REGULATING EXTRACTABLE PROANTHOCYANIDINS (PAS) IN PLANTS BY AFFECTING LEUCOANTHOCYANIDIN REDUCTASE (LAR)” (University of North Texas, priority 2016, published 2019).

Key:
[1] = biological target: T1, LAR from Desmodium uncinatum (Desmodium uncinatum, UniProt Q84V83); conditions: Tanner et al. 2003; read-out: reported Km of LAR towards leucocyanidin; cited from earlier work
T1 sequence (Q84V83 1-382): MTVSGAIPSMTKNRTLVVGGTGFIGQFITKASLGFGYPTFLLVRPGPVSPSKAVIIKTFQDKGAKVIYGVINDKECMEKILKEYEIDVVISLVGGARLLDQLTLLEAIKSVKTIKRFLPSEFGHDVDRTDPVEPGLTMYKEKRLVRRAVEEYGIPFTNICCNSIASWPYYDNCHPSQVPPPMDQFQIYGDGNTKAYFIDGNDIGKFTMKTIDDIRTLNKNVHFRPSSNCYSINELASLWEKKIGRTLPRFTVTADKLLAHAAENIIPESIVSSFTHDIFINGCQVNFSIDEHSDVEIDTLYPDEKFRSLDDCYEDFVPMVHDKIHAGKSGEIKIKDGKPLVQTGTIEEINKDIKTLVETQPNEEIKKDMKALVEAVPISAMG

[2] = DMACA reactivity; assay type: physicochemical; conditions: Five μL of 1 mM compound added to 200 mL 0.2% DMACA stain solution
Experimental: Seeds of the lar mutant accumulated more than twice the level of 4β-(S-cysteinyl)-epicatechin than wild-type plants (FIGS. 14B and 14C), whereas none was detected in the anr mutant, and MYB5 over-expressing hairy roots accumulated more than three times the level of epicatechin-cysteine found in MYB14 over-expressing hairy roots. […] DMACA reactivity of epicatechin-cysteine was also measured. Five μL of 1 mM epicatechin or epicatechin-cysteine were added to 200 mL 0.2% DMACA stain solution. OD values of absorbance at 640 nm were measured as: Epicatechin=OD 0.71, Epicatechin-cysteine=OD 0.34, and Blank=OD 0.05. Epicatechin-cysteine reacted with DMACA reagent to produce a less intense blue color than epicatechin, consistent with the weak DMACA staining of lar mutant seeds.

[3] = test system: mutated LAR (LAR/K143G); assay: Conversion of 4β-(S-cysteinyl)-epicatechin to epicatechin by mutated LAR (negative control); assay type: biochemical, Medicago truncatula; conditions: 40 μM substrate, 50 μM NADPH, 5 μg protein, 1 h, room temperature
Experimental: The full length LAR cDNA was cloned into pMal-c5x vector (New England Biolab) at the XmnI and BamHI sites. Mutations, which convert the lysine 143 codon to a glycine codon, were introduced into LAR cDNA by over-lapping PCR. The expression constructs were transformed into E. coli strain Rosetta™ 2(DE3)pLysS (EMD Millipore) competent cells. Transformed bacteria were grown in LB medium supplemented with 0.2% glucose to OD 600 of 0.5, and IPTG was added at 0.3 mM to induce protein expression. Bacteria were harvested after 4 h induction. LAR proteins were purified with amylose resin (NEB, E8021) following the manufacturer's protocol. Briefly, bacteria were lysed by sonication at 4° C. in extraction buffer (20 mM Tris pH 7.0, 200 mM NaCl, 1 mM DTT, 1 mM PMSF). […]
The above analyses indicate that the 21 minute fraction above contains cysteine and glucuronic acid conjugates of epicatechin, as well as a glucoside conjugate of epicatechin cysteine. Of these compounds, epicatechin cysteine was determined to be the best candidate for being a substrate for LAR. […] The ethyl acetate extract was dried under vacuum, dissolved in 50 μL water and analyzed by UPLC/MS.
Reactions without NADPH or LAR, with NADP^+, and with mutated LAR (LAR/K143G) were run in parallel as negative controls. Reactions were analyzed by UPLC/MS in negative mode. […] Epicatechin-cysteine content was quantified by EIC. […]

Compound	Km [1]	OD values of absorbance at 640 nm (DMACA reactivity) [2]	activity of mutated LAR on substrate (epicatechin formation, UPLC/MS) [3]
Oc1cc(O)c2c(c1)OC(c1ccc(O)c(O)c1)C(O)C2O (stereo not drawn) [leucocyanidin]	6 µM		
N[C@@H](CS[C@H]1c2c(O)cc(O)cc2O[C@H](c2ccc(O)c(O)c2)[C@@H]1O)C(=O)O [4β-(S-cysteinyl)-epicatechin]		0.34 OD	no activity
